# Molecular target: Replicase polyprotein 1ab (Severe acute respiratory syndrome coronavirus 2) (UniProt P0DTD1)
# Description: Functional biochemical assay to identify treatments for viral infectious disease that targets SARS-COV-2 nsp3 macrodomain, whereby the mechanism of action displaces an ADP-Ribose modified peptide from the binding site. Utilizing a time-resolved fluorescence method to measure binding by reading the emitted fluorescence intensity in two wavelengths.
smiles,measurement,setting,value
O=C(CCN(Cc1cccc(Cl)c1)C(=O)[C@@H]1C[C@@H](O)CN1)N1CCNCC1,inhibition,"Concentration 49.75 uM, Number of replicates 2.0, Standard deviation 1.654 %",-3.54%
same,inhibition,"Concentration 99.5 uM, Number of replicates 2.0, Standard deviation 6.509 %",4.74%
NC(=O)[C@@H]1CCN(C(=O)c2cnc3[nH]c(=O)[nH]c(=O)c3c2)C1,inhibition,"Concentration 50.0 uM, Number of replicates 2.0, Standard deviation 2.086 %",-6.32%
O=C(Cn1c(=O)[nH]c2ccccc21)Nc1cnc2[nH]ncc2c1,inhibition,"Concentration 50.0 uM, Number of replicates 2.0, Standard deviation 2.142 %",1.78%
O=C(CCN(Cc1cccc(Cl)c1)C(=O)c1ccccc1F)N1CCNCC1,inhibition,"Concentration 49.75 uM, Number of replicates 2.0, Standard deviation 0.399 %",-0.625%
same,inhibition,"Concentration 99.5 uM, Number of replicates 2.0, Standard deviation 0.282 %",0.395%
c1nc(N[C@@H]2CCCc3c2cnn3C2CCCC2)c2cc[nH]c2n1,inhibition,"Concentration 49.75 uM, Number of replicates 2.0, Standard deviation 0.354 %",0.884%
same,inhibition,"Concentration 99.5 uM, Number of replicates 2.0, Standard deviation 0.15 %",14.3%
Fc1ccc(OC(F)F)c(CNc2cnc3[nH]ncc3c2)c1,inhibition,"Concentration 50.0 uM, Number of replicates 2.0, Standard deviation 3.077 %",-6.67%
OC[C@@H]1CN(c2ncnc3nc[nH]c23)CCC1(F)F,inhibition,"Concentration 50.0 uM, Number of replicates 2.0, Standard deviation 0.855 %",1.75%
CN(c1ncnc2[nH]ccc12)[C@H]1CCN(S(C)(=O)=O)C1,inhibition,"Concentration 50.0 uM, Number of replicates 2.0, Standard deviation 5.861 %",-0.371%
Cc1nc(C(=O)N2CCC(c3ccn4ncc(C(=O)N5CCCCC5)c4c3)CC2)c(=O)[nH]c1C,inhibition,"Concentration 49.75 uM, Number of replicates 2.0, Standard deviation 2.437 %",26.4%
same,inhibition,"Concentration 99.5 uM, Number of replicates 2.0, Standard deviation 0.005 %",44.2%
CC(C)[C@H]1CNC(=O)CN1c1ncnc2[nH]ccc12,inhibition,"Concentration 49.75 uM, Number of replicates 2.0, Standard deviation 0.296 %",6.84%
same,inhibition,"Concentration 99.5 uM, Number of replicates 2.0, Standard deviation 2.93 %",17.6%
Cn1ncc2ncnc(NCc3ncccc3O)c21,inhibition,"Concentration 50.0 uM, Number of replicates 2.0, Standard deviation 1.081 %",-2.55%
CNC[C@@H]1CCCN1C(=O)c1cnn2ccc(C3CCN(C(=O)c4ccccc4)CC3)cc12,inhibition,"Concentration 49.75 uM, Number of replicates 2.0, Standard deviation 1.186 %",-1.47%
same,inhibition,"Concentration 99.5 uM, Number of replicates 2.0, Standard deviation 2.864 %",-2.2%
O=C(c1cnc[nH]1)N1CCC(c2ccn3ncc(C(=O)N4CCCCC4)c3c2)CC1,inhibition,"Concentration 49.75 uM, Number of replicates 2.0, Standard deviation 1.741 %",20.3%
same,inhibition,"Concentration 99.5 uM, Number of replicates 2.0, Standard deviation 2.598 %",35.3%
COc1cc(OC)cc(C(=O)N(CCC(=O)N2CCNCC2)Cc2cccc(Cl)c2)c1,inhibition,"Concentration 50.0 uM, Number of replicates 2.0, Standard deviation 1.533 %",-4.53%
CCn1cc(CNc2cc3c(O)ncnc3cn2)nn1,inhibition,"Concentration 50.0 uM, Number of replicates 2.0, Standard deviation 1.563 %",1.67%
Cc1n[nH]nc1C(=O)N1CCC(c2ccn3ncc(C(=O)N4CCCCC4)c3c2)CC1,inhibition,"Concentration 49.75 uM, Number of replicates 2.0, Standard deviation 0.483 %",29.3%
same,inhibition,"Concentration 99.5 uM, Number of replicates 2.0, Standard deviation 0.403 %",45.8%
O=S(=O)(NC[C@H]1CCOC1)c1cn2c(n1)CCCC2,inhibition,"Concentration 50.0 uM, Number of replicates 2.0, Standard deviation 7.062 %",-3.2%
Cc1ccc(C(=O)N2CCC(c3ccn4ncc(C(=O)N5CCCCC5)c4c3)CC2)c(=O)[nH]1,inhibition,"Concentration 49.75 uM, Number of replicates 2.0, Standard deviation 1.294 %",3.31%
same,inhibition,"Concentration 99.5 uM, Number of replicates 2.0, Standard deviation 2.376 %",3.66%
O=C(NCc1ncccn1)c1cnn2ccc(C3CCN(C(=O)c4ccccc4)CC3)cc12,inhibition,"Concentration 49.75 uM, Number of replicates 2.0, Standard deviation 2.653 %",-0.074%
same,inhibition,"Concentration 99.5 uM, Number of replicates 2.0, Standard deviation 0.514 %",-6.66%
O=C(c1cccc(Br)c1)N1CCC(c2ccn3ncc(C(=O)N4CCCCC4)c3c2)CC1,inhibition,"Concentration 50.0 uM, Number of replicates 2.0, Standard deviation 0.499 %",32.1%
C[C@@H](CO)Nc1ncnc2[nH]c(C(=O)OC(C)(C)C)cc12,inhibition,"Concentration 50.0 uM, Number of replicates 2.0, Standard deviation 12.843 %",10.7%
OC[C@@H](Nc1ncnc2[nH]c(I)cc12)c1ccccc1,inhibition,"Concentration 50.0 uM, Number of replicates 2.0, Standard deviation 1.35 %",26.1%
O=C(c1cccnc1O)N1CCC(c2ccn3ncc(C(=O)N4CCCCC4)c3c2)CC1,inhibition,"Concentration 49.75 uM, Number of replicates 2.0, Standard deviation 3.415 %",-7.04%
same,inhibition,"Concentration 99.5 uM, Number of replicates 2.0, Standard deviation 3.017 %",-3.94%
Cn1c(C(=O)NCCn2cccc2)cc2c(=O)n3ccccc3nc21,inhibition,"Concentration 50.0 uM, Number of replicates 2.0, Standard deviation 2.478 %",2.26%
O=C(c1cccnc1S)N1CCC(c2ccn3ncc(C(=O)N4CCCCC4)c3c2)CC1,inhibition,"Concentration 49.75 uM, Number of replicates 2.0, Standard deviation 1.032 %",32.3%
same,inhibition,"Concentration 99.5 uM, Number of replicates 2.0, Standard deviation 1.028 %",52.6%
COCc1cc(CC(=O)Nc2ncnc3[nH]cnc23)no1,inhibition,"Concentration 50.0 uM, Number of replicates 2.0, Standard deviation 0.215 %",2.97%
FC(F)(F)c1ccccc1[C@@H]1CN(c2ncnc3[nH]ccc23)CCO1,inhibition,"Concentration 50.0 uM, Number of replicates 2.0, Standard deviation 3.904 %",-5.31%
O=C(Nc1ccccc1)Nc1ccc(C(=O)N2CCOCC23CCC3)cc1,inhibition,"Concentration 49.75 uM, Number of replicates 2.0, Standard deviation 0.885 %",-5.18%
same,inhibition,"Concentration 99.5 uM, Number of replicates 2.0, Standard deviation 3.072 %",-3.18%
O=C(Cc1ccc(F)cc1)Nc1ccc2[nH]ncc2c1,inhibition,"Concentration 50.0 uM, Number of replicates 2.0, Standard deviation 1.625 %",1.14%
Cn1nc(NCc2cc3c(=O)[nH]ccc3o2)c2nccnc21,inhibition,"Concentration 50.0 uM, Number of replicates 2.0, Standard deviation 1.985 %",-1.01%
Cc1nc(Nc2cnn(CCO)c2)c2cc[nH]c2n1,inhibition,"Concentration 50.0 uM, Number of replicates 2.0, Standard deviation 4.582 %",-6.15%
c1ccc(-c2n[nH]cc2CNc2cnc3[nH]ncc3c2)cc1,inhibition,"Concentration 50.0 uM, Number of replicates 2.0, Standard deviation 1.159 %",-2.04%
Cn1ncc2c(NCc3ncccc3O)ncnc21,inhibition,"Concentration 50.0 uM, Number of replicates 2.0, Standard deviation 16.275 %",3.89%
NC1(C(=O)N(CCC(=O)N2CCNCC2)Cc2cccc(Cl)c2)CC(F)(F)C1,inhibition,"Concentration 49.75 uM, Number of replicates 2.0, Standard deviation 0.286 %",-3.48%
same,inhibition,"Concentration 99.5 uM, Number of replicates 2.0, Standard deviation 3.805 %",-1.17%
Cc1[nH]c2ncnc(NCc3ccco3)c2c1C,inhibition,"Concentration 50.0 uM, Number of replicates 2.0, Standard deviation 0.505 %",17%
same,inhibition,"Concentration 100.0 uM, Number of replicates 2.0, Standard deviation 0.323 %",37.5%
O=C(c1cnc2[nH]ncc2c1)N1CCC(c2ccn3ncc(C(=O)N4CCCCC4)c3c2)CC1,inhibition,"Concentration 49.75 uM, Number of replicates 2.0, Standard deviation 0.466 %",15.8%
same,inhibition,"Concentration 99.5 uM, Number of replicates 2.0, Standard deviation 6.369 %",34.4%
CNC(=O)c1cccc(CNC(=O)c2ncnc3[nH]ccc23)c1,inhibition,"Concentration 50.0 uM, Number of replicates 2.0, Standard deviation 1.029 %",-5.91%
CCCNC(=O)[C@H]1CCCN(c2ncnc3[nH]ccc23)C1,inhibition,"Concentration 50.0 uM, Number of replicates 2.0, Standard deviation 0.927 %",-4.36%
O=C(Cc1n[nH]c2c1CCCC2)Nc1cnc2[nH]ncc2c1,inhibition,"Concentration 50.0 uM, Number of replicates 2.0, Standard deviation 2.447 %",-1.26%
Cn1c(C(=O)NCCNC(=O)c2ccco2)cc2c(=O)n3ccccc3nc21,inhibition,"Concentration 50.0 uM, Number of replicates 2.0, Standard deviation 1.378 %",-4.47%
C[C@@H](Nc1ncnc2[nH]ccc12)c1cnn(CC2CCC2)c1,inhibition,"Concentration 49.75 uM, Number of replicates 2.0, Standard deviation 1.153 %",-0.451%
same,inhibition,"Concentration 99.5 uM, Number of replicates 2.0, Standard deviation 1.366 %",4.9%
NS(=O)(=O)N1CCCN(c2ncnc3[nH]c(I)cc23)CC1,inhibition,"Concentration 50.0 uM, Number of replicates 2.0, Standard deviation 1.583 %",2.29%
O=C(Nc1cnc2[nH]ncc2c1)c1cccc(-c2noc(C(F)(F)F)n2)c1,inhibition,"Concentration 50.0 uM, Number of replicates 2.0, Standard deviation 7.077 %",-0.675%
same,inhibition,"Concentration 100.0 uM, Number of replicates 2.0, Standard deviation 3.401 %",-1.62%
Cc1[nH]c2ncnc(NC(=O)CCc3ccccc3)c2c1C,inhibition,"Concentration 50.0 uM, Number of replicates 2.0, Standard deviation 2.066 %",5.02%
O=C(Nc1cnc2[nH]ncc2c1)c1noc2c1CCCC2,inhibition,"Concentration 50.0 uM, Number of replicates 2.0, Standard deviation 0.458 %",-1.4%
CN(Cc1cn(C)nn1)C(=O)c1ccc(NC(=O)Nc2ccccc2)cc1,inhibition,"Concentration 49.75 uM, Number of replicates 2.0, Standard deviation 0.56 %",0.883%
same,inhibition,"Concentration 99.5 uM, Number of replicates 2.0, Standard deviation 3.63 %",0.566%
CCC(CC)(C(=O)Nc1nc(C)nc2[nH]ccc12)C(=O)OC(C)(C)C,inhibition,"Concentration 50.0 uM, Number of replicates 2.0, Standard deviation 5.081 %",-9.46%
same,inhibition,"Concentration 100.0 uM, Number of replicates 2.0, Standard deviation 0.41 %",-4.71%
Cc1ccnc(C2CCN(c3ncnc4[nH]ccc34)CC2)n1,inhibition,"Concentration 50.0 uM, Number of replicates 2.0, Standard deviation 3.755 %",3.46%
CO[C@@]1(C(=O)O)CCN(C(=O)c2ncnc3[nH]ccc23)C1,inhibition,"Concentration 50.0 uM, Number of replicates 2.0, Standard deviation 2.289 %",-4.18%
same,inhibition,"Concentration 100.0 uM, Number of replicates 2.0, Standard deviation 3.346 %",-3.71%
Cc1cc(C(F)(F)F)nn1CCNc1ncnc2[nH]ccc12,inhibition,"Concentration 50.0 uM, Number of replicates 2.0, Standard deviation 3.563 %",-3.04%
same,inhibition,"Concentration 50.0 uM, Number of replicates 2.0, Standard deviation 6.31 %",4.6%
same,inhibition,"Concentration 100.0 uM, Number of replicates 2.0, Standard deviation 1.334 %",-2.21%
O=C(Nc1cnc2[nH]ncc2c1)c1ccncc1Cl,inhibition,"Concentration 50.0 uM, Number of replicates 2.0, Standard deviation 1.31 %",-2.75%
same,inhibition,"Concentration 50.0 uM, Number of replicates 2.0, Standard deviation 1.931 %",-0.272%
same,inhibition,"Concentration 100.0 uM, Number of replicates 2.0, Standard deviation 1.828 %",2.96%
O=C(Nc1ccccc1)Nc1ccc(C(=O)N2CCc3ccncc32)cc1,inhibition,"Concentration 49.75 uM, Number of replicates 2.0, Standard deviation 6.741 %",-4.3%
same,inhibition,"Concentration 99.5 uM, Number of replicates 2.0, Standard deviation 1.961 %",0.234%
O=C(Nc1cnc2[nH]ncc2c1)C1CCN(c2ccc3nncn3n2)CC1,inhibition,"Concentration 50.0 uM, Number of replicates 2.0, Standard deviation 15.88 %",17%

# Source: ChEMBL document CHEMBL5442379, “ASAP - SARS-CoV-2 nsp3 macrodomain single point” (2024)
